In patent US20210106567A1, “COMPOSITIONS AND METHODS FOR INHIBITING CARP-1 BINDING TO NEMO” (United States Government As Represented By The Department …, priority 2019, published 2021):
One block for each molecule: values may come before it. Ends that are not written are not given here.

Legend:
[1] = system: parental and chemo-resistant human and murine TNBC cells and parental renal cancer cells; assay: Cytokine ELISA of culture media, chemotherapy-induced secretion; format: cell-based; conditions: single agent
[2] = system: mammospheres derived from human TNBC PDX tumors; assay: Three-dimensional mammosphere assay (MTT); format: cell-based; conditions: Homo sapiens; 5 μM for 48 h
Procedure: Three-dimensional Mammosphere Assays: The PDX tumor cells were dissociated from the tumor fragments, and cultured for 2-dimensional and mammosphere studies in vitro (Cheriyan et al. (2016) Oncotarget 7, 73370-73388). Briefly, the cells were washed twice in 1×PBS, trypsinized, and pelleted at 200×g at room temperature. Cells were then re-suspended in 5 ml of mammosphere media (DMEM/F12 containing 2 mM L-glutamine, 100 U/ml penicillin, 100 U/ml streptomycin, 1×B27 supplement, 20 ng/ml recombinant human epidermal growth factor (EGF; Sigma), 10 ng/ml recombinant human basic fibroblast growth factor (bFGF; R&D Systems). Approximately 5000 viable cells per ml was then seeded in an ultra-low adherent 60 mm plate and incubated at 37° C. and 5% CO2 for two weeks without disturbing the plates. After the mammospheres formed, fresh media with or without Adriamycin (5 μM), SNI-1 (2.5 or 5.0 μM), or a combination of these agents was added and the cells incubated for additional 48 h at 37° C. and 5% CO2. The mammospheres in the untreated and treated plates were photographed, and the cells were then dissociated to determine their viabilities by the MTT assay (Cheriyan et al. (2016) Oncotarget 7, 73370-73388).

[3] = system: p65/RelA activation and phosphorylation of NEMO; assay: Western blot for canonical NF-κB activation; format: cell-based; conditions: single agent, Western blot
Text: (§1) The cells were lysed to prepare protein extracts.

[4] = system: cleaved RIPK1; assay: Western blot for RIPK1 cleavage; format: cell-based
Text: as §1

[5] = system: 4T1 TNBC tumors; assay: 4T1 TNBC syngeneic tumor efficacy study in Balb/c mice; format: in vivo, mouse; conditions: ELISA of sera
Procedure: Establishment of TNBC cell-derived xenografts in Syngeneic mice: Generation of 4T1 TNBC cell-derived sub-cutaneous xenografts in Balb/c mice were performed (Cheriyan et al. (2016) Oncotarget 7, 73370-73388; and Cheriyan et al. (2017) Oncotarget 8, 104928-104945). BALB/cAnNCr, 6-8-weeks old, female mice were purchased from Charles River Laboratories (Horsham, Pa.). Following suitable acclimation of animals, 1×10^6 4T1 TNBC cells were re-suspended in 200 μl of sterile saline, and implanted in the flanks using a 27-gauge needle. Tumors were allowed to grow to 500-1000 mg (˜10 days), and the aseptically harvested, minced into 3-4 mm^3 (30 mg) fragments and transplanted SC into naïve recipient mice using a standard 12 gauge trocar to serially maintain the tumor in vivo. For efficacy studies, tumors serially maintained in vivo were aseptically harvested and minced into 3-4 mm^3 (30 mg) fragments, then bilaterally transplanted subcutaneously along the flanks using a standard 12 gauge trocar. […] For the efficacy studies, SNI-1 was formulated in 8% DMSO (v/v) and 8% Cremophor (v/v) in cell grade water, pH4 as diluent.
Clinical grade ADR stock (2 mg/mL) was diluted to the appropriate concentration with cell grade water; pH4 and clinical grade CIS (1 mg/ml) diluted with USP 0.9% saline; pH6). Mice were monitored daily for changes in condition and body weight. Tumors were measured three times weekly by caliper and tumor volume (mg) was calculated using the following formula: (A×B2)/2 where A and B are the tumor length and width (in mm), respectively. […] Efficacy was also assessed quantitatively using tumor growth delay (T−C) defined as the difference between the median time (in days) required for the treatment group tumors (T) to reach 1000 mg and the median time (days) for the control group tumors to reach the same volume. Post last treatment, tumor tissue and samples from various organs (spleen, liver, kidney, heart, bone, and lungs) were collected. Additionally, the whole blood samples were obtained from a representative tumor-bearing mouse from each group via terminal cardiac puncture. Immuno-histochemical analyses of the tumor and tissue samples were performed for expression of activated RelA (serine 536 phosphorylated p65), total RelA, cleaved caspase-3, and CARP-1 proteins. The levels of pro-inflammatory cytokines in the sera were analyzed by sandwich ELISA assays following methods detailed herein (Cheriyan et al. (2016) Oncotarget 7, 73370-73388; and Cheriyan et al. (2017) Oncotarget 8, 104928-104945).

[6] = system: MDR1; assay: Levels of drug efflux pump MDR1; format: cell-based, human; conditions: MDA-MB-468 cells
Text: Of note is that SNI-1 in combination with Adriamycin provoked a greater inhibition of tumor growth when compared with the tumor growth inhibition noted in animals treated with either agent alone. […] Since TNBCs and many other cancers are often known to express drug efflux pumps that contribute to lower efficacy of drugs in clinic and development of drug-resistant tumors, it is likely that the presence/expression of these drug efflux pumps function in part to interfere with a robust anti-tumor response to a combination of SNI-1 and Adriamycin.

[7] = system: MDA-MB-231 TNBC cells; conditions: Wen et al. (2018); read-out: IC50, growth inhibition; cited from earlier work
[8] = system: MDA-MB-468 TNBC cells; assay: MTT cell viability, SNI-1 analogs; format: cell-based, human; conditions: 24 h
Procedure: FIGS. 22A-B show SNI-1 analogs enhance Adriamycin inhibition of TNBC cell growth. FIGS. 22A-B show cells treated with indicated dose of noted agent for 24 h, and their viabilities determined by MTT assay. Columns represent means of three independent experiments; bars, SE.
MDA-MB-468 TNBC cells were next treated with each of the analog in vitro as a single agent or in combination with Adriamycin in vitro.

[9] = molecular target: T1, Flag-CARP-1 (546-580) binding with Biotin-NEMO (221-261) (Homo sapiens, UniProt Q8IX12); assay: AlphaLISA assay of CARP-1/NEMO peptide binding (HTS format); conditions: read-out: IC50, inhibition of binding of CARP-1 (546-580) with NEMO (221-261) peptide
T1 construct: Flag-tagged CARP-1 (546-580); purchased Peptides America, Fairfax, Va; host or cells: chemical synthesis
Text: The predicted kinetics of interaction of CARP-1 (551-600; SEQ ID NO: 5) and NEMO (221-261; SEQ ID NO: 2) epitopes was further validated by utilizing respective, chemically synthesized peptides to determine their in-solution binding by SPR technology (Sekhar et al. (2019) Cancers (Basel) 11). […] On the collective basis of the data in FIG. 1, and biophysical and SPR data above, in vitro binding assays were developed utilizing chemically synthesized CARP-1 and NEMO peptides. In the first instance, CARP-1 (551-580; SEQ ID NO: 6) and NEMO (221-261; SEQ ID NO: 2) peptides were used to carry out buffer optimization and DMSO tolerance of the assay. […] Presence of 0.01% tween minimizes non-specific binding and generates higher reproducibility as noted by smaller error bars in FIG. 15A. […]
The AlphaLISA assay for high throughput screening: For screening of a library of chemical compounds, an […] assay was developed and optimized for use in 384-well format (SAMDI Tech, Chicago, Ill.). […] The assay signal (Fluorescence) was measured at 680 nm excitation and 615 nm emission wavelengths to determine assay robustness and DMSO tolerance. […] The plates were read on a Pherastar FS plate reader. […] Those wells were further analyzed to investigate the 8 compounds individually in duplicate.

[10] = molecular target: T2, NEMO (221-260) peptide (Homo sapiens, UniProt Q9Y6K9); assay: Surface Plasmon Resonance kinetics of CARP-1 peptide binding with NEMO peptide; conditions: SPR
T2 construct: host or cells: chemical synthesis
Procedure: Next, kinetics of CARP-1 binding with NEMO were determined by Surface Plasmon Resonance (SPR) Technology (Profacgen, Shirley, N.Y.). Briefly, CARP-1 (551-580) peptide (Amino terminal-[…]-Carboxyl terminal; SEQ ID NO: 6) was dissolved in water, and various concentrations of CARP-1 Peptide were manually printed onto the bare gold-coated (thickness 47 nm) PlexArray Nanocapture Sensor Chip (Plexera Bioscience, Seattle, Wash., US) at 40% humidity. Each concentration was printed in replicate, and each spot contained 0.2 μL of sample solution. The chip was incubated in 80% humidity at 4° C. for overnight, and rinsed with 10×PBST for 10 min, 1×PBST for 10 min, and deionized water twice for 10 min. The chip was then blocked with 5% (w/v) non-fat milk in water overnight, and washed with 10×PBST for 10 min, 1×PBST for 10 min, and deionized water twice for 10 min before being dried under a stream of nitrogen prior to use. The binding reactions with NEMO (221-260; SEQ ID NO: 7) peptide (Amino terminal-[…]-Carboxyl terminal; SEQ ID NO: 7) were performed in PBST buffer (0.01M phosphate buffered saline (0.138 M NaCl; 0.0027 M KCl), 0.05% Tween-20, pH 7.4). SPRi measurements were performed with PlexAray HT (Plexera Bioscience, Seattle, Wash., US). […] The signal changes after binding and washing (in AU) were recorded as the assay value. Selected protein-grafted regions in the SPR images were analyzed, and the average reflectivity variations of the chosen areas were plotted as a function of time. Real-time binding signals were recorded and analyzed by Data Analysis Module (DAM, Plexera Bioscience, Seattle, Wash., US). […]
Association and dissociation rate constants were calculated by numerical integration and global fitting to a 1:1 interaction model and the equation: dRU(t)/dt=kaC(R^max−RU(t))−kdRU(t), where RU(t) is the response at time t, Rmax is the maximum response, C is the concentration of analyte in solution, ka is the association rate constant, kd is the dissociation rate constant, and RU (0)=0.

T2 sequence (Q9Y6K9 222-261, one chain of several): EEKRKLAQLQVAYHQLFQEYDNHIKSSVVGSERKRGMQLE
T1 sequence (Q8IX12 546-580 limits assumed): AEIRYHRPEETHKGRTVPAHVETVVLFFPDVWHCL

Molecule: O=c1[nH]cc(F)c(=O)[nH]1 [5-FU]
- levels of TNFα, IL-8, and IL-1β in the media [1]: robust increase

Molecule: COc1cccc2c1C(=O)c1c(O)c3c(c(O)c1C2=O)C[C@@](O)(C(=O)CO)C[C@@H]3O[C@H]1C[C@H](N)[C@H](O)[C@H](C)O1 [Adriamycin]
- inhibition at 5 µM [2]: ~30%
- p65/RelA activation and phosphorylation of NEMO [3]: robust increase
- expression of cleaved RIPK1 [4]: induced expression of cleaved RIPK1
- levels of TNFα, IL-8, and IL-1β in the media [1]: robust increase
- serum levels of TNFα and IL-1β [5]: robustly stimulated
- levels of drug efflux pump MDR1 [6]: moderate increase
- IC50 [7]: ~3000 nM

Molecule: Cc1ccc(-n2cnnc2SCC(=O)c2ccc(O)c(O)c2)cc1 [GL-208]
- loss of cell viability in combination with Adriamycin versus Adriamycin alone [8]: minimal reduction in cell viabilities

Molecule: Cc1ccc(-n2cnnc2[S+]([O-])CC(=O)c2ccc(O)c(O)c2)cc1 (centres unmarked) [GL-209]
- loss of cell viability in combination with Adriamycin versus Adriamycin alone [8]: loss of cell viabilities that were greater

Molecule: Cc1ccc(-n2cnnc2S(=O)(=O)CC(=O)c2ccc(O)c(O)c2)cc1 [GL-210]
- loss of cell viability in combination with Adriamycin versus Adriamycin alone [8]: minimal reduction in cell viabilities

Molecule: Cc1ccc(-n2ccnc2SCC(=O)c2ccc(O)c(O)c2)cc1 [GL-211]
- loss of cell viability in combination with Adriamycin versus Adriamycin alone [8]: minimal reduction in cell viabilities

Molecule: Cc1ccc(-n2ccnc2[S+]([O-])CC(=O)c2ccc(O)c(O)c2)cc1 (centres unmarked) [GL-212]
- loss of cell viability in combination with Adriamycin versus Adriamycin alone [8]: moderate reduction in cell viabilities

Molecule: Cc1ccc(-n2ccnc2S(=O)(=O)CC(=O)c2ccc(O)c(O)c2)cc1 [GL-213]
- loss of cell viability in combination with Adriamycin versus Adriamycin alone [8]: loss of cell viabilities that were greater

Molecule: O=C(CSc1nc2ccccc2s1)c1ccc(O)c(O)c1 [GL-215]
- loss of cell viability in combination with Adriamycin versus Adriamycin alone [8]: moderate reduction in cell viabilities

Molecule: O=C(CSc1nc(-c2ccccc2)cs1)c1ccc(O)c(O)c1 [GL-216]
- loss of cell viability in combination with Adriamycin versus Adriamycin alone [8]: loss of cell viabilities that were greater

- IC50 [9]: ~25 µM
Molecule: COc1ccc(S(=O)(=O)Nc2ccccc2C(=O)NCCc2ccccc2)cc1 [SNI-2, 2-{((4-methoxyphenyl)sulfonyl)amino}-N-(2-phenylethyl)benzamide]

- Kd ([10]; chemically synthesized peptides, read-out: equilibrium dissociation constant (KD Value)): 102 nM
- kon ([10]; read-out: Ka (association rate constant)): 2070 M⁻¹ s⁻¹
- koff ([10]; read-out: Kd (dissociation rate constant)): 0.000212 s⁻¹
Molecule: HRPEETHKGRTVPAHVETVVLFFPDVWHCL [CARP-1 (551-580)]
